Reference: publication PMC6002460, “Pharmacological evaluation of new constituents of “Spice”: synthetic cannabinoids based on indole, indazole, benzimidazole and carbazole scaffolds” (Forensic Toxicology, 2018)
“Also recorded” adds a separate entry of the source. Where two headings read alike, the source gives them in different places.

Key:
human CB1 receptor [1] = biological target: T1, human CB1 receptor (Homo sapiens, UniProt P21554); test: biochemical; type: binding; settings: [3H]CP55,940 0.1 nM, CHO cell membranes; read-out: Ki ± SEM Human CB1
T1 construct: expressed in transfected cells; host or cells: CHO cells (membrane preparations)

human CB2 receptor [2] = biological target: T2, human CB2 receptor (Homo sapiens, UniProt P34972); test: biochemical; type: binding; settings: [3H]CP55,940 0.1 nM, CHO cell membranes; read-out: Ki ± SEM Human CB2
T2 construct: expressed in transfected cells; host or cells: CHO cells (membrane preparations)

CB1 receptor [3] = settings: cited from earlier work
CB2 receptor [4] = settings: cited from earlier work
human GPR18 = biological target: T3, human GPR18 (Homo sapiens, UniProt Q14330); test: β-Arrestin PathHunter assay, recombinant CHO cells expressing GPR18; type: cell-based; settings: for Human GPR18 % activation / Human GPR18 % inhibition: value in parentheses
T3 construct: host or cells: CHO cells
T3 sequence (Q14330 1-331): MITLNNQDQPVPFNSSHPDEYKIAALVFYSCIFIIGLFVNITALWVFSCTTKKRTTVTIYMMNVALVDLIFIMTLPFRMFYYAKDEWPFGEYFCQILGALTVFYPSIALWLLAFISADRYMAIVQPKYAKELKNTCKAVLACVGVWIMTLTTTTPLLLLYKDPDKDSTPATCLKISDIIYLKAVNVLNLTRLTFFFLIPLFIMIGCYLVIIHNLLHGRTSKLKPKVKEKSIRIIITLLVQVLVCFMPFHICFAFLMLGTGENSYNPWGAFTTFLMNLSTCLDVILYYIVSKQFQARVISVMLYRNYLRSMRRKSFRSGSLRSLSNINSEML
Method: (§1) β-Arrestin assays were performed in recombinant CHO cells expressing either the human GPR18 or the human GPR55 as described before using the β-galactosidase enzyme fragment complementation technology (β-arrestin PathHunter™ assay; DiscoverX, Fremont, CA, USA).
(§2) The orphan receptors GPR18 and GPR55 can interact with certain natural and synthetic cannabinoids. […] Therefore, we investigated the new series of indole, indazole, benzimidazole and carbazole-derived structures in β-arrestin assays at GPR18 and GPR55 (Table 2). […] For the lipophilic substitutions, the following rank order of potency was observed: ethyl > methyl > chloro > fluoro. Therefore, it can be concluded that a lipophilic substitution in position 4 of the naphthyl residue was a requirement for GPR55 inhibition.

CB1 receptor [5] = settings: membrane potential assay, cited from earlier work
human CB1 receptor [6] = biological target: T1, human CB1 receptor; test: cAMP accumulation assay, CHO cells stably expressing CB1; type: cell-based; settings: for CB1 receptor activation in cAMP accumulation assay (in words): compound at 10 µM, normalized to CP55,940 (1 µM); for EC50: forskolin 10 µM, read-out: EC50 CB1 receptor activation, cAMP accumulation
Method: (§3) cAMP accumulation assays were performed also as previously described. Briefly, CHO cells stably expressing the respective human CB receptor subtype CB1 or CB2 were seeded overnight. […] After incubation for 15 min the buffer was removed, and the cells were lyzed. The amount of cAMP was determined in a radioligand binding assay by incubating 50 µL of the cell lysate with 3 nM [^3H]cAMP in the presence of protein preparations from bovine adrenal glands (cAMP binding protein). Bound and unbound radioligand were separated by rapid filtration through GF/B filters, and radioactivity was determined by liquid scintillation counting. To test for antagonistic activity, test compounds were added to Hank’s buffered salt solution (HBSS) containing 10% dimethyl sulfoxide (DMSO), 10 min after the application of Ro-20-1724, and the mixture was incubated for 20 min at 37 °C.
(§4) As a next step, we investigated the compounds in cAMP accumulation assays, to obtain information on their functionality (Fig. 3). CB receptors are Gi protein-coupled and thus reduce the levels of cAMP in the cells upon activation.

human GPR55 = biological target: T4, human GPR55 (Homo sapiens, UniProt Q9Y2T6); test: β-Arrestin PathHunter assay, recombinant CHO cells expressing GPR55; type: cell-based; settings: for Human GPR55 % activation / Human GPR55 % inhibition: value in parentheses; for Human GPR55 % inhibition: antagonist mode versus LPI 1 µM
T4 construct: host or cells: CHO cells
Method: as §1, §2

human CB2 receptor [7] = biological target: T2, human CB2 receptor; test: cAMP accumulation assay, CHO cells stably expressing CB2; type: cell-based; settings: for CB2 receptor activation in cAMP accumulation assay (in words): compound at 10 µM, normalized to CP55,940 (1 µM)
Method: as §3, §4

CB2 receptor [8] = settings: membrane potential assay, cited from earlier work
CB1 receptor [9] = biological target: CB1 receptor; set-up: method as in Buchler et al. [37]; settings: versus 0.5 nM [3H]CP55,940; ref Buchler et al. [37]; cited from earlier work
CB2 receptor [10] = biological target: CB2 receptor; set-up: method as in Bowden et al. [43]; settings: HTRF cAMP accumulation; ref Bowden et al. [43]; cited from earlier work
[11] = agonist mode, read-out: Human GPR18 EC50
[12] = agonist mode, read-out: Human GPR55 EC50
[13] = antagonist mode versus lysophosphatidylinositol (LPI, 1 µM), read-out: Human GPR55 IC50

T1 sequence (P21554 whole entry): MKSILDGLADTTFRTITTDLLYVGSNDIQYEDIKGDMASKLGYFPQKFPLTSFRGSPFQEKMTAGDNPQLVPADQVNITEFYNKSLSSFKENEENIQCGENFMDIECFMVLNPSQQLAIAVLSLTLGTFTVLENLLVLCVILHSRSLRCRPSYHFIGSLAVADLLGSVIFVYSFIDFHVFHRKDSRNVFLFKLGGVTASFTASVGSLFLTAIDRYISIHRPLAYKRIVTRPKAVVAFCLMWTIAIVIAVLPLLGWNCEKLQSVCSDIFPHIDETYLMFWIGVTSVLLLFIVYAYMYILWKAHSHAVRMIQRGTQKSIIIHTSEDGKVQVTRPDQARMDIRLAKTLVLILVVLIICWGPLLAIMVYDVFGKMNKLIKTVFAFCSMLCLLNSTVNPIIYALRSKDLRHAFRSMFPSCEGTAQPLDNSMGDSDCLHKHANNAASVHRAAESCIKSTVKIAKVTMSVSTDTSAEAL
T4 sequence (Q9Y2T6 whole entry): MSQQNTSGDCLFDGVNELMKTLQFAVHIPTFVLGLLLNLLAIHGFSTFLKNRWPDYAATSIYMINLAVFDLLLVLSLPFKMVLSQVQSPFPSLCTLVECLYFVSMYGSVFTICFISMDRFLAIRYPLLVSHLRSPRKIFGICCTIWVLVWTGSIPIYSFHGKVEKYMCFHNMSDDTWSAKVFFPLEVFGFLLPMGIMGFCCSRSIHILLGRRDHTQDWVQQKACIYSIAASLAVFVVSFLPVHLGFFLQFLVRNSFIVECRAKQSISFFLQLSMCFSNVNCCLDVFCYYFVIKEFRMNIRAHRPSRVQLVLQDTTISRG
T2 sequence (P34972 whole entry): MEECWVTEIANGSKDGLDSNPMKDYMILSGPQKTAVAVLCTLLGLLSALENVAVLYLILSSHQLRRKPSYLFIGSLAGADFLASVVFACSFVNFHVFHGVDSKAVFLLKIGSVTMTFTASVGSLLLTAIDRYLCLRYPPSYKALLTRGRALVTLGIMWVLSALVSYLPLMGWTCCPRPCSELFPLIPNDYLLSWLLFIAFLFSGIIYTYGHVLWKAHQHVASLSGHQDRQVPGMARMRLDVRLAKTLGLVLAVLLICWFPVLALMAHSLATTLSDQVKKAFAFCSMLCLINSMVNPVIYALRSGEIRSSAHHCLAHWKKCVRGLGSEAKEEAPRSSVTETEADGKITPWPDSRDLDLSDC

Row | SMILES | Ki (human CB1 receptor [1]) [nM] | Ki (human CB2 receptor [2]) [nM] | EC50 (human GPR18) [nM] | IC50 (human GPR18) [nM] | Human GPR18 % activation (human GPR18; agonist mode) | EC50 (human GPR55) [nM] | IC50 (human GPR55) [nM] | Human GPR55 % activation (human GPR55; agonist mode) [%] | Human GPR55 % inhibition (human GPR55) [%] | Ki (CB1 receptor [9]) [nM] | other results
1 | CCCCCn1cc(C(=O)c2cccc3ccccc23)c2ccccc21 [compound 3, JWH-018, reference compound] | 1.51 ± 0.67 | 2.24 ± 1.2 | – | – | – | – | – | – | – | – | Ki (CB1 receptor [3]): 9 nM; Ki (CB2 receptor [4]): 2.9 nM
2 | COC(=O)[C@@H](NC(=O)c1nn(CCCCCF)c2ccccc12)C(C)(C)C [compound 11, 5F-ADB] | 23.3 ± 10.2 | 5.99 ± 2.47 | > 10000 | > 10000 | > 10 (10%) | > 10000 | > 10000 | 0 | 6 | – | EC50 (CB1 receptor [5]; ref Banister et al. [38]): 0.59 nM; CB1 receptor activation in cAMP accumulation assay (in words) (human CB1 receptor [6]): partial activation; CB2 receptor activation in cAMP accumulation assay (in words) (human CB2 receptor [7]): full agonists; EC50 (CB2 receptor [8]; ref Banister et al. [38]): 7.5 nM
3 | CC(C)[C@H](NC(=O)c1nn(Cc2cccc(F)c2)c2ccccc12)C(N)=O [compound 18, AB-FUBINACA (3-F-benzyl-isomer)] | 12.6 ± 0.7 | 52.2 ± 10.2 | > 10000 | > 10000 | > 10 (10%) | > 10000 | > 10000 | 11 | – | 51.1 | –
4 | CC(C)[C@H](NC(=O)c1nn(Cc2ccccc2F)c2ccccc12)C(N)=O [compound 19, AB-FUBINACA (2-F-benzyl-isomer)] | 6.91 ± 3.42 | 25 ± 6.1 | > 10000 | > 10000 | 11% | > 10000 | > 10000 | 15 | – | 4.69 | –
5 | NC(=O)[C@H](Cc1ccccc1)NC(=O)c1nn(Cc2ccc(F)cc2)c2ccccc12 [compound 29, APP-FUBINACA] | 56.3 ± 19.8 | 58.1 ± 17.3 | > 10000 | > 10000 | 4% | > 10000 | > 10000 | 26 | – | 47.6 | Human GPR18 % inhibition (human GPR18; antagonist mode): 21%; CB1 receptor activation in cAMP accumulation assay (in words) (human CB1 receptor [6]): partial activation; CB2 receptor activation in cAMP accumulation assay (in words) (human CB2 receptor [7]): full agonists
6 | NC(=O)[C@H](Cc1ccccc1)NC(=O)c1nn(CC2CCCCC2)c2ccccc12 [compound 30] | 9.81 ± 4.56 | 4.39 ± 0.59 | > 10000 | ~10000 | 5% | > 10000 | > 10000 | 11 | 9 | 47.5 | Human GPR18 % inhibition (human GPR18; antagonist mode): 57%
7 | CCCCCn1cc(C(=O)NC(C)(C)c2ccccc2)c2ccccc21 [compound 31, Cumyl-PICA] | 3.27 ± 0.32 | 24 ± 8.8 | > 10000 | > 10000 | 19% | > 10000 | > 10000 | 11 | 3 | – | EC50 (CB1 receptor [5]; ref Longworth et al. [51]): 4.2 nM; EC50 (CB2 receptor [8]; ref Longworth et al. [51]): 58.2 nM; EC50 (CB2 receptor [10]): 13 nM
8 | O=C(c1ccc2c(c1)c1ccccc1n2CCCCCF)c1cccc2ccccc12 [compound 40, EG-2201] | 22.4 ± 12.8 | 4.36 ± 2.91 | – | – | 3% | – | – | – | 3 | – | EC50 (human GPR18; [11]): > 10000 nM; Human GPR18 % inhibition (human GPR18; antagonist mode): 7%; IC50 (human GPR18; antagonist mode, read-out: Human GPR18 IC50): > 10000 nM; Emax (human CB1 receptor [6]; CHO, read-out: efficacy at CB1 compared to maximum response of CP55,940, cAMP accumulation): 94%; functional behaviour at CB1 receptor (in words) (human CB1 receptor [6]; cAMP accumulation): agonistic behavior; EC50 (human CB1 receptor [6]): 15.6 nM; EC50 (human GPR55; [12]): > 10000 nM; IC50 (human GPR55; [13]): > 10000 nM; Emax (human CB2 receptor [7]; CHO, read-out: efficacy at CB2 compared to maximum response of CP55,940, cAMP accumulation): 77%; functional behaviour at CB2 receptor (in words) (human CB2 receptor [7]; cAMP accumulation): agonistic behavior; EC50 (human CB2 receptor [7]; forskolin 10 µM, read-out: EC50 CB2 receptor activation, cAMP accumulation): 5.65 nM
9 | COC(=O)C(NC(=O)c1ccc2c(c1)c1ccccc1n2CC1CCCCC1)C(C)(C)C (stereo not shown) [compound 41, MDMB-CHMCZCA] | 5.75 ± 1.65 | 6.67 ± 1.4 | – | – | – | – | – | – | 25 | – | EC50 (human GPR18; [11]): > 10000 nM; IC50 (human GPR18; extrapolated value, full curve could not be determined due to limited solubility, read-out: Human GPR18 IC50 (extrapolated)): 9660 ± 1200 nM; functional behaviour at CB1 receptor (in words) (human CB1 receptor [6]; cAMP accumulation): full efficacy; also recorded: agonist; EC50 (human CB1 receptor [6]): 120 nM; EC50 (human GPR55; [12]): > 10000 nM; IC50 (human GPR55; [13]): > 10000 nM; functional behaviour at CB2 receptor (in words) (human CB2 receptor [7]; cAMP accumulation): completely lacked CB2 receptor activation; also recorded: antagonist; CB2 receptor activation in cAMP accumulation assay (in words) (human CB2 receptor [7]): failed to evoke an agonistic response; IC50 (human CB2 receptor [7]; read-out: IC50 inhibition of CB2 receptor activation, cAMP accumulation): 807 ± 137 nM
10 | COc1ccc(C(=O)c2c(C)n(CCN3CCOCC3)c3cc(I)ccc23)cc1 [compound 43, AM-630] | – | – | – | – | – | – | – | – | – | – | function at CB1 (in words) (CB1 receptor [3]): partial agonist; Ki (CB2 receptor [4]): 31.2 ± 12.4 nM; function at CB2 (in words) (CB2 receptor [4]): antagonist
11 | Cc1ccc(Cn2nc(C(=O)N[C@@H]3C(C)(C)[C@@H]4CC[C@@]3(C)C4)cc2-c2ccc(Cl)c(C)c2)cc1 [compound 44, SR-144,528] | – | – | – | – | – | – | – | – | – | – | Ki (CB1 receptor [3]): 437 ± 33 nM; function at CB2 (in words) (CB2 receptor [4]): antagonist
12 | CC1=CC[C@@H]2[C@@H](C1)c1c(O)cc(C(C)(C)CCCCCCBr)cc1OC2(C)C [compound 45, AM11542] | – | – | – | – | – | – | – | – | – | – | Ki (CB1 receptor [3]; co-crystallized agonist): 0.11 nM
